Laboratory results: patent US6774110B2, “Orally available peptidic thrombin inhibitors” (LG Life Sciences Ltd., priority 2001, dated 2004)
Counter-ions that a name gives are not always drawn.

Biological target: T1, thrombin (Homo sapiens, UniProt P00734)
T1 construct: Thrombin used in this test was prepared from human plasma; from tissue; host or cells: human plasma
Assay: In vitro enzyme assay for determining thrombin inhibition constants (Chromozym TH substrate)
Type: biochemical
Conditions: Inhibition constant Ki, thrombin prepared from human plasma; Dixon plot; pH 7.8
Procedure: The activity of thrombin was measured spectrophotometrically using tosyl-Gly-Pro-Arg-p-nitroanilide acetate (Chromozym TH, Boehringer Mannheim) as a substrate. […] Each compound was dissolved in DMSO to make a 1 mM stock solution and dilutions were made thereof with assay buffer (0.1 M TrisHCl, 0.15 M NaCl, 0.1% polyethylene glycol 8000, pH 7.8). Different concentrations of inhibitor were mixed with 0.3 NIH units of thrombin in 0.8 mL of the buffer. The mixture was incubated for 10 min at room temperature before adding 0.2 mL of the substrate to a final concentration of 20 μM. […] A graph for the reciprocal value of initial velocity to the inhibitor concentration was derived from progress curves by fitting the data using a linear regression program. […]

| SMILES | Ki [nM] |
| --- | --- |
| N=C(N)c1ccc(CNC(=O)[C@@H]2CCCN2C(=O)[C@H](NC(=O)Oc2ccccc2)C(c2ccccc2)c2ccccc2)cc1 [Compound 25, N-phenyloxycarbonyl-D-diphenylalanyl-L-prolyl-[(4-amidinophenyl)methyl]amide.TFA] | 0.15 |

Same assay, conditions: thrombin prepared from human plasma; Dixon plot; pH 7.8; read-out: Inhibition constant Ki

| Ki [nM] | SMILES |
| --- | --- |
| 0.02 | COC(=O)N[C@@H](C(=O)N1CCC[C@H]1C(=O)NCc1ccc(C(=N)N)cc1)C(C1CCCCC1)C1CCCCC1 [Compound 27, N-methoxycarbonyl-D-dicyclohexylalanyl-L-prolyl-[(4-amidinophenyl)methyl]amide.TFA] |
| 0.38 | N=C(N)c1ccc(CNC(=O)[C@@H]2CCCN2C(=O)[C@H](NS(N)(=O)=O)C2CCCCC2)cc1 [Compound 6, N-aminosulfonyl-D-cyclohexylglycinyl-L-prolyl-[(4-amidinophenyl)methyl]amide.TFA] |
| 0.045 | N=C(N)c1ccc(CNC(=O)[C@@H]2CCCN2C(=O)[C@H](Nc2ccccc2)C(c2ccccc2)c2ccccc2)cc1 [Compound 50, N-phenyl-D-diphenylalanyl-L-prolyl-[(4-amidinophenyl)methyl]amide.TFA] |
| 0.47 | COC(=O)N[C@H](Cc1ccc(Cl)c(Cl)c1)C(=O)N1CCC[C@H]1C(=O)NCc1ccc(C(=N)N)cc1 [Compound 26, N-methoxycarbonyl-D-3,4-dichlorophenylalanyl-L-prolyl-[(4-amidinophenyl)methyl]amide.TFA] |
| 0.05 | N=C(N)c1ccc(CNC(=O)[C@@H]2CCCN2C(=O)[C@H](NCC(=O)O)C(c2ccccc2)c2ccccc2)cc1F [Compound 47, N-carboxymethyl-D-diphenylalanyl-L-prolyl-[(4-amidino-3-fluorophenyl)methyl]amide.2TFA] |
| 0.03 | N=C(N)c1ccc(CNC(=O)[C@@H]2CCCN2C(=O)[C@H](NCC(=O)O)C(c2ccccc2)c2ccccc2)cn1 [Compound 46, N-carboxymethyl-D-diphenylalanyl-L-prolyl-(6-amidino-3-picolyl)amide.2TFA] |
| 0.22 | Cc1cc(CNC(=O)[C@@H]2CCCN2C(=O)[C@H](NCC(=O)O)C(c2ccccc2)c2ccccc2)ccc1C(=N)N [Compound 48, N-carboxymethyl-D-diphenylalanyl-L-prolyl-[(4-amidino-3-methylphenyl)methyl]amide.2TFA] |
| 0.002 | CN(C)S(=O)(=O)N[C@@H](C(=O)N1CCC[C@H]1C(=O)NCc1ccc(C(=N)N)cc1)C(c1ccccc1)c1ccccc1 [Compound 42, N-dimethylaminosulfonyl-D-diphenylalanyl-L-prolyl-[(4-amidinophenyl)methyl]amide.TFA] |
| 43 | CC(C)[C@@H](NS(N)(=O)=O)C(=O)N1CCC[C@H]1C(=O)NCc1ccc(C(=N)N)cc1 [Compound 8, N-Aminosulfonyl-D-valinyl-L-prolyl-[(4-amidinophenyl)methyl]amide.TFA] |
| 0.046 | N=C(N)c1ccc(CNC(=O)[C@@H]2CCCN2C(=O)[C@H](NS(N)(=O)=O)C(C2CCCCC2)C2CCCCC2)cn1 [Compound 11, N-aminosulfonyl-D-dicyclohexylalanyl-L-prolyl-(6-amidino-3-picolyl)amide.TFA] |
| 0.029 | N=C(N)c1ccc(CNC(=O)[C@@H]2CCCN2C(=O)[C@H](NS(N)(=O)=O)C(C2CCCCC2)C2CCCCC2)cc1 [Compound 4, N-aminosulfonyl-D-dicyclohexylalanyl-L-prolyl-[(4-amidinophenyl)methyl]amide.TFA] |
| 0.016 | N=C(N)c1ccc(CNC(=O)[C@@H]2CCCN2C(=O)[C@H](NS(N)(=O)=O)C(c2ccccc2)c2ccccc2)c(F)c1 [Compound 16, N-aminosulfonyl-D-diphenylalanyl-L-prolyl-[(4-amidino-2-fluorophenyl)methyl]amide.TFA] |
| 0.06 | COC(=O)N[C@@H](C(=O)N1CC[C@H]1C(=O)NCc1ccc(C(=N)N)cc1)C(c1ccccc1)c1ccccc1 [Compound 28, N-methoxycarbonyl-D-diphenylalanyl-L-azetidine-2-carboxyl-[(4-amidinophenyl)methyl]amide.TFA] |
| 0.44 | COC(=O)N[C@@H](C(=O)N1CCC[C@H]1C(=O)NCc1ccc(C(=N)N)c(C)c1)C(c1ccccc1)c1ccccc1 [Compound 37, N-methoxycarbonyl-D-diphenylalanyl-L-prolyl-[(4-amidino-3-methylphenyl)methyl]amide.TFA] |
| 0.03 | COC(=O)N[C@@H](C(=O)N1CCC[C@H]1C(=O)NCc1ccc(C(=N)N)cc1)C(c1ccccc1)c1ccccc1 [Compound 22, N-methoxycarbonyl-D-diphenylalanyl-L-prolyl-[(4-amidinophenyl)methyl]amide.TFA] |
| 0.02 | N=C(N)c1ccc(CNC(=O)[C@@H]2CCCN2C(=O)[C@H](NCC(=O)O)C(c2ccccc2)c2ccccc2)cc1 [Compound 45, N-carboxymethyl-D-diphenylalanyl-L-prolyl-[(4-amidinophenyl)methyl]amide.2TFA] |
| 0.32 | Cc1cc(CNC(=O)[C@@H]2CCCN2C(=O)[C@H](NS(N)(=O)=O)C(c2ccccc2)c2ccccc2)ccc1C(=N)N [Compound 17, N-aminosulfonyl-D-diphenylalanyl-L-prolyl-[(4-amidino-3-methylphenyl)methyl]amide.TFA] |
| 2.1 | N=C(N)c1ccc(CNC(=O)[C@@H]2CCCN2C(=O)[C@@H](CC2CCCCC2)NS(N)(=O)=O)cn1 [Compound 12, N-aminosulfonyl-D-cyclohexylalanyl-L-prolyl-(6-amidino-3-picolyl)amide.TFA] |
| 0.02 | COC(=O)N[C@@H](C(=O)N1CCC[C@H]1C(=O)NCc1ccc(C(=N)N)nc1)C(C1CCCCC1)C1CCCCC1 [Compound 32, N-methoxycarbonyl-D-dicyclohexylalanyl-L-prolyl-(6-amidino-3-picolyl) amide.TFA] |
| 0.16 | N=C(N)c1ccc(CNC(=O)[C@@H]2CCCN2C(=O)[C@@H](Cc2ccc(Cl)c(Cl)c2)NS(N)(=O)=O)cc1 [Compound 3, N-aminosulfonyl-D-3,4-dichlorophenylalanyl-L-prolyl-[(4-amidinophenyl)methyl]amide.TFA] |
| 0.04 | COC(=O)N[C@@H](C(=O)N1CCC[C@H]1C(=O)NCc1ccc(C(=N)N)cn1)C(c1ccccc1)c1ccccc1 [Compound 33, N-methoxycarbonyl-D-diphenylalanyl-L-prolyl-(5-amidino-2-picolyl)amide.TFA] |
| 0.023 | N=C(N)c1ncc(CNC(=O)[C@@H]2CCCN2C(=O)[C@H](NS(N)(=O)=O)C(c2ccccc2)c2ccccc2)cn1 [Compound 14, N-aminosulfonyl-D-diphenylalanyl-L-prolyl-[(2-amidino-5-pyrimidyl)methyl]amide.TFA] |
| 15.7 | CCOC(=O)CN[C@@H](C(=O)N1CCC[C@H]1C(=O)NCc1ccc(C(N)=NO)cc1)C(c1ccccc1)c1ccccc1 [Compound 49, N-(ethoxycarbonyl)methyl-D-diphenylalanyl-L-prolyl-[(4-hydroxyamidinophenyl)methyl]amide.TFA] |
| 0.018 | N=C(N)c1ccc(CNC(=O)[C@@H]2CCCN2C(=O)[C@H](NS(N)(=O)=O)C(c2ccccc2)c2ccccc2)cc1 [Compound 1, N-aminosulfonyl-D-diphenylalanyl-L-prolyl-[(4-amidinophenyl)methyl]amide.TFA] |

| SMILES | Ki [nM] |
| --- | --- |
| CC(C)(C)OC(=O)N[C@@H](C(=O)N1CCC[C@H]1C(=O)NCc1ccc(C(=N)N)cc1)C(c1ccccc1)c1ccccc1 [Compound 21, N-t-butoxycarbonyl-D-diphenylalanyl-L-prolyl-[(4-amidinophenyl)methyl]amide.TFA] | 0.08 |
